Measurements as given in patent US8455000B2, “Resorbable polymer compositions for use in medicine, dentistry, and surgery” (Syncera Inc., priority 2006, dated 2013).
Like-named read-outs stand apart in the source and are kept apart here.

How the values were obtained:
[1] = Retention and release of dyes from PE-PEG matrix into phosphate buffered saline; assay type: physicochemical; conditions: dye only, tube 10
Experimental: Method: C50 PE-PEG16 was blended with PLURONIC™ L44 in a ratio of 7:3 w/w as described in Example 3. Rose Bengal (100 mg) and SR24 (100 mg) were mixed with 5 g aliquots of molten PE-PEG and PE-PEG/poloxamer blend, and maintained at 110° C. with mixing until the dye was fully dissolved.
Ten small (6 ml) glass test tubes were prepared as shown in Tables 5-6, Tubes 4-7 contained 0.5 g of the PE-PEG and PE-PEG/polymer samples mixed with dye, tubes 2, 3, 8 and 9 contained 0.5 g PE-PEG and PE-PEG/polymer samples (without dye) and 10 mg of dye added separately (after the PE-PEG or blend had solidified), tubes 1 and 10 contained only the dye, as controls.
Each glass test tube was affixed to the inside of a 50 ml polypropylene centrifuge tube with a silicone adhesive. Fifty ml of phosphate buffered saline was added to each of the tubes, and they were rocked gently for six days. At appropriate time points, the concentration of dye in the buffer was measured using a spectrophotometer. The SR24 dye was measured at 516 nm, the Rose Bengal concentration was estimated from the maximal absorption λmax from 540 nm to 560 nm.

[2] = in words; cited from earlier work

- solubility in water [1]: zero solubility
Compound: Cc1ccccc1/N=N/c1ccc(/N=N/c2c(O)ccc3ccccc23)c(C)c1 [SR24, Solvent Red 24]
- solubility in water [2]: negligible solubility
